What follows are compounds tested against T1, human mPGES-1 (Homo sapiens, UniProt O14684) (assay: Microsomal prostaglandin E synthase biochemical assay). Conditions: microsome preparation containing human mPGES-1; substrate PGH2 10.8 μM, GSH 2.5 mM, pH 6.8; PGE2 by HTRF; average of at least n=2.
T1 construct: host or cells: microsomes
T1 sequence (O14684 1-152): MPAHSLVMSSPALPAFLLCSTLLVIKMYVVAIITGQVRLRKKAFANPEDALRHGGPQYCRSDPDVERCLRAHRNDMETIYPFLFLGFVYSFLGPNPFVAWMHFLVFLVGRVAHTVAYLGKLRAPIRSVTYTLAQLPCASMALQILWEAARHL
Procedure: Compounds were tested as inhibitors of microsomal prostaglandin E synthase activity in microsomal prostaglandin E synthase assays and whole cell assays. These assays measure prostaglandin E2 (PGE2) synthesis which is taken as a measure of prostaglandin E synthase activity. Microsomal prostaglandin E synthase biochemical assays used microsomal prostaglandin E synthase-1 in microsomal preparations. The source of the microsomes can be for example interleukin-1β-stimulated human A549 cells (which express human mPGES-1) or Sf9 cells transfected with plasmids encoding human mPGES-1 cDNA.
A solution of test compound was added to a diluted microsome preparation containing is human mPGES-1 and pre-incubated for 15 minutes in potassium phosphate buffer pH 6.8 with cofactor glutathione (GSH). Corresponding solutions without test compound were used as positive controls, and corresponding solutions without test compound and without microsomes were used as negative controls. The enzymatic reaction was then started by addition of the substrate PGH2 in an organic solution (dry acetonitrile).
The reaction was stopped after one minute by adding an acidic solution (pH 1.9) of ferric chloride and citrate (final concentrations 7 mM and 47 mM respectively), by which the PGH2 was sequestered (the PGH2 is reduced to mainly 12-hydroxy heptadecatrineoic acid (12-HHT) which is not detected by the subsequent PGE2 detection step). The resulting solution was then pH neutralized by addition of potassium phosphate buffer, prior to diluting an aliquot of the resulting solution in a weak potassium phosphate buffer (50 mM, pH 6.8) containing 0.2% BSA (w/v). […] The PGE2 formed was quantified by use of a commercial HTRF based kit (catalogue #62PG2PEC or #62P2APEC from Cisbio International). 100% activity was defined as the PGE2 production in positive controls subtracted by the PGE2 production in the negative controls. IC50 values were then determined using standard procedures.

Compound | IC50 [nM]
CCCC(C)C#Cc1ccc(C(=O)NS(=O)(=O)c2ccccc2S(N)(=O)=O)cc1CO (stereo not drawn) [Example 32, 3-(Hydroxymethyl)-4-(3-methylhex-1-ynyl)-N-(2-sulfamoylphenylsulfonyl)benzamide] | 60
COc1cc(C(=O)NS(=O)(=O)c2ccccc2S(N)(=O)=O)ccc1C#CC(C)C [Example 74, 3-Methoxy-4-(3-methylbut-1-ynyl)-N-(2-sulfamoylphenylsulfonyl)benzamide] | 190
CCCC(C)C#Cc1ccc(C(=O)NS(=O)(=O)c2ccccc2S(N)(=O)=O)cc1OC (stereo not drawn) [Example 37, 3-Methoxy-4-(3-methylhex-1-ynyl)-N-(2-sulfamoylphenylsulfonyl)benzamide] | 35
COc1ccc(S(=O)(=O)NC(=O)c2ccc(C#CC(C)(C)C)cc2)c(S(N)(=O)=O)c1 [Example 78, 4-methoxy-benzene-1,2-disulfonic acid 2-amide 1-[4-(3,3-dimethyl-but-1-ynyl)-benzoylamide]] | 2200
CC(C)C#Cc1ccc(C(=O)NS(=O)(=O)c2ccccc2S(N)(=O)=O)cc1OCCC(F)F [Example 71, 3-(3,3-Difluoropropoxy)-4-(3-methylbut-1-ynyl)-N-(2-sulfamoylphenylsulfonyl)benzamide] | 31
NS(=O)(=O)c1ccccc1S(=O)(=O)NC(=O)c1ccc(C#CC(C2CC2)C2CC2)c(OCCC(F)(F)F)c1 [Example 36, 4-(3,3-Dicyclopropylprop-1-ynyl)-N-(2-sulfamoylphenylsulfonyl)-3-(3,3,3-trifluoropropoxy)benzamide] | 18
CC(C)(C)C#Cc1ccc(C(=O)NS(=O)(=O)c2ccccc2S(N)(=O)=O)cc1OCC1CC1 [Example 22, 3-(Cyclopropylmethoxy)-4-(3,3-dimethylbut-1-ynyl)-N-(2-sulfamoylphenylsulfonyl)benzamide] | 13
CC(C)C#Cc1ccc(C(=O)NS(=O)(=O)c2ccccc2S(N)(=O)=O)cc1OCCCF [Example 72, 3-(3-Fluoropropoxy)-4-(3-methylbut-1-ynyl)-N-(2-sulfamoylphenylsulfonyl)benzamide] | 43
NS(=O)(=O)c1ccccc1S(=O)(=O)NC(=O)c1cnc(C#Cc2ccc(C(F)(F)F)cc2)c(F)c1 [Example 47, 5-Fluoro-N-(2-sulfamoylphenylsulfonyl)-6-((4-(trifluoromethyl)phenyl)ethynyl)nicotinamide] | 6.5
NS(=O)(=O)c1ccccc1S(=O)(=O)NC(=O)c1ccc(C#Cc2ccc(C(F)(F)F)cc2)c(CO)c1 [Example 39, 3-(Hydroxymethyl)-N-(2-sulfamoylphenylsulfonyl)-4-((4-(trifluoromethyl)phenyl)ethynyl)benzamide] | 22
CC(C)C#Cc1ncc(C(=O)NS(=O)(=O)c2ccccc2S(N)(=O)=O)cc1F [Example 46, 5-Fluoro-6-(3-methylbut-1-ynyl)-N-(2-sulfamoylphenylsulfonyl)nicotinamide] | 200
NS(=O)(=O)c1ccccc1S(=O)(=O)NC(=O)c1ccc(C#CCCCCCl)cc1 [Example 42, 4-(6-Chlorohex-1-ynyl)-N-(2-sulfamoylphenylsulfonyl)benzamide] | 37
COc1ccc(S(=O)(=O)NC(=O)c2ccc(-c3cc4ccccc4o3)cc2)c(S(N)(=O)=O)c1 [Example 76, 4-methoxy-benzene-1,2-disulfonic acid 2-amide 1-(4-benzofuran-2-yl-benzoylamide)] | 530
COC(C)(C)CCOc1cc(C(=O)NS(=O)(=O)c2ccccc2S(N)(=O)=O)ccc1C#CC1CC1 [Example 27, 4-(Cyclopropylethynyl)-3-(3-methoxy-3-methylbutoxy)-N-(2-sulfamoylphenylsulfonyl)benzamide] | 85
CC(C)C#Cc1ccc(C(=O)NS(=O)(=O)c2ccccc2S(N)(=O)=O)cc1OCCC(F)(F)F [Example 45, 4-(3-Methylbut-1-ynyl)-N-(2-sulfamoylphenylsulfonyl)-3-(3,3,3-trifluoropropoxy)benzamide] | 18

Source: patent US20100292279A1, “Bis-(Sulfonylamino) Derivatives in Therapy” (ASTRAZENECA AB, priority 2009, published 2010)
